In patent publication US20260183295A1, “METHODS AND COMPOSITIONS FOR TREATING CANCER” (Onconova Therapeutics, Inc., priority 2022, published 2026):

Legend:
Assay in all cases: CETSA-MS, MDA-MB-231 intact cells
Format in all cases: cell-based
Conditions in all cases: 2 μM and 20 μM
DHX9 = target: T1, DHX9 (Homo sapiens, UniProt Q08211)
T1 construct: 148 targets unique to Compound 1 in MDA-MB-231 intact cells; endogenous in cells; host or cells: MDA-MB-231
Outline: (§1)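 Heat gradient applied to compound-incubated intact MDA-MB-231 cells; flash-frozen lysates sonicated and cleared, soluble proteins acetone-washed, then digested and labeled. Protein melting shifts were derived from mass spectrometry quantification.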

INCENP = target: T2, INCENP (Homo sapiens, UniProt Q9NQS7)
T2 construct: endogenous in cells; host or cells: MDA-MB-231
Outline: as §1

LAMC1 = target: T3, LAMC1 (Homo sapiens, UniProt P11047)
T3 construct: endogenous in cells; host or cells: MDA-MB-231
Outline: as §1

FOS = target: T4, FOS (Homo sapiens, UniProt P01100)
T4 construct: endogenous in cells; host or cells: MDA-MB-231
Outline: as §1

ELL = target: T5, ELL (Homo sapiens, UniProt P55199)
T5 construct: 148 targets unique to Compound 1 in MDA-MB-231 intact cells; endogenous in cells; host or cells: MDA-MB-231
Outline: as §1

ACAA1 = target: T6, ACAA1 (Homo sapiens, UniProt P09110)
T6 construct: endogenous in cells; host or cells: MDA-MB-231
Outline: as §1

IFT52 = target: T7, IFT52 (Homo sapiens, UniProt Q9Y366)
T7 construct: endogenous in cells; host or cells: MDA-MB-231
Outline: as §1

NRP1 = target: T8, NRP1 (Homo sapiens, UniProt O14786)
T8 construct: endogenous in cells; host or cells: MDA-MB-231
Outline: as §1

HNRNPA3 = target: T9, HNRNPA3 (Homo sapiens, UniProt P51991)
T9 construct: 148 targets unique to Compound 1 in MDA-MB-231 intact cells; endogenous in cells; host or cells: MDA-MB-231
Outline: as §1

NAPG = target: T10, NAPG (Homo sapiens, UniProt Q99747)
T10 construct: endogenous in cells; host or cells: MDA-MB-231
Outline: as §1

LAMTOR2 = target: T11, LAMTOR2 (Homo sapiens, UniProt Q9Y2Q5)
T11 construct: endogenous in cells; host or cells: MDA-MB-231
Outline: as §1

ARRB2 = target: T12, ARRB2 (Homo sapiens, UniProt P32121)
T12 construct: endogenous in cells; host or cells: MDA-MB-231
Outline: as §1

CAVIN3 = target: T13, CAVIN3 (Homo sapiens, UniProt Q969G5)
T13 construct: endogenous in cells; host or cells: MDA-MB-231
Outline: as §1

MTG1 = target: T14, MTG1 (Homo sapiens, UniProt Q9BT17)
T14 construct: endogenous in cells; host or cells: MDA-MB-231
Outline: as §1

ESYT1 = target: T15, ESYT1 (Homo sapiens, UniProt Q9BSJ8)
T15 construct: 148 targets unique to Compound 1 in MDA-MB-231 intact cells; endogenous in cells; host or cells: MDA-MB-231
Outline: as §1

CLUH = target: T16, CLUH (Homo sapiens, UniProt O75153)
T16 construct: endogenous in cells; host or cells: MDA-MB-231
Outline: as §1

APP = target: T17, APP (Homo sapiens, UniProt P05067)
T17 construct: endogenous in cells; host or cells: MDA-MB-231
Outline: as §1

CBX5 = target: T18, CBX5 (Homo sapiens, UniProt P45973)
T18 construct: endogenous in cells; host or cells: MDA-MB-231
Outline: as §1

ECE1 = target: T19, ECE1 (Homo sapiens, UniProt P42892)
T19 construct: 148 targets unique to Compound 1 in MDA-MB-231 intact cells; endogenous in cells; host or cells: MDA-MB-231
Outline: as §1

COG8 = target: T20, COG8 (Homo sapiens, UniProt Q96MW5)
T20 construct: endogenous in cells; host or cells: MDA-MB-231
Outline: as §1

SCP2 = target: T21, SCP2 (Homo sapiens, UniProt P22307)
T21 construct: endogenous in cells; host or cells: MDA-MB-231
Outline: as §1

SGPP1 = target: T22, SGPP1 (Homo sapiens, UniProt Q9BX95)
T22 construct: endogenous in cells; host or cells: MDA-MB-231
Outline: as §1

MLEC = target: T23, MLEC (Homo sapiens, UniProt Q14165)
T23 construct: endogenous in cells; host or cells: MDA-MB-231
Outline: as §1

CLPP = target: T24, CLPP (Homo sapiens, UniProt Q16740)
T24 construct: endogenous in cells; host or cells: MDA-MB-231
Outline: as §1

IGFBP7 = target: T25, IGFBP7 (Homo sapiens, UniProt Q16270)
T25 construct: endogenous in cells; host or cells: MDA-MB-231
Outline: as §1

TIMP2 = target: T26, TIMP2 (Homo sapiens, UniProt P16035)
T26 construct: endogenous in cells; host or cells: MDA-MB-231
Outline: as §1

UFL1 = target: T27, UFL1 (Homo sapiens, UniProt O94874)
T27 construct: endogenous in cells; host or cells: MDA-MB-231
Outline: as §1

PIP4K2A = target: T28, PIP4K2A (Homo sapiens, UniProt P48426)
T28 construct: endogenous in cells; host or cells: MDA-MB-231
Outline: as §1

GSK3B = target: T29, GSK3B (Homo sapiens, UniProt P49841)
T29 construct: endogenous in cells; host or cells: MDA-MB-231
Outline: as §1

PIP4K2B = target: T30, PIP4K2B (Homo sapiens, UniProt P78356)
T30 construct: endogenous in cells; host or cells: MDA-MB-231
Outline: as §1

SNX6 = target: T31, SNX6 (Homo sapiens, UniProt Q9UNH7)
T31 construct: endogenous in cells; host or cells: MDA-MB-231
Outline: as §1

ELAVL1 = target: T32, ELAVL1 (Homo sapiens, UniProt Q15717)
T32 construct: 148 targets unique to Compound 1 in MDA-MB-231 intact cells; endogenous in cells; host or cells: MDA-MB-231
Outline: as §1

AGRN = target: T33, AGRN (Homo sapiens, UniProt O00468)
T33 construct: endogenous in cells; host or cells: MDA-MB-231
Outline: as §1

NPM1 = target: T34, NPM1 (Homo sapiens, UniProt P06748)
T34 construct: endogenous in cells; host or cells: MDA-MB-231
Outline: as §1

FOSB = target: T35, FOSB (Homo sapiens, UniProt P53539)
T35 construct: endogenous in cells; host or cells: MDA-MB-231
Outline: as §1

FGFRL1 = target: T36, FGFRL1 (Homo sapiens, UniProt Q8N441)
T36 construct: 148 targets unique to Compound 1 in MDA-MB-231 intact cells; endogenous in cells; host or cells: MDA-MB-231
Outline: as §1

T13 sequence (Q969G5 whole entry): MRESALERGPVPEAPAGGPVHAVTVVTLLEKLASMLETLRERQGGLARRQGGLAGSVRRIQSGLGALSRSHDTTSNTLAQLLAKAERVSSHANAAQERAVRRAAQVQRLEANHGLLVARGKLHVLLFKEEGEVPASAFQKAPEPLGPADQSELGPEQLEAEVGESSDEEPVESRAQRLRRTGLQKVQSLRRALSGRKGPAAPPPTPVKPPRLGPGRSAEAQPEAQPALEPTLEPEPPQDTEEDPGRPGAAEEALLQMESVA
T3 sequence (P11047 34-1609): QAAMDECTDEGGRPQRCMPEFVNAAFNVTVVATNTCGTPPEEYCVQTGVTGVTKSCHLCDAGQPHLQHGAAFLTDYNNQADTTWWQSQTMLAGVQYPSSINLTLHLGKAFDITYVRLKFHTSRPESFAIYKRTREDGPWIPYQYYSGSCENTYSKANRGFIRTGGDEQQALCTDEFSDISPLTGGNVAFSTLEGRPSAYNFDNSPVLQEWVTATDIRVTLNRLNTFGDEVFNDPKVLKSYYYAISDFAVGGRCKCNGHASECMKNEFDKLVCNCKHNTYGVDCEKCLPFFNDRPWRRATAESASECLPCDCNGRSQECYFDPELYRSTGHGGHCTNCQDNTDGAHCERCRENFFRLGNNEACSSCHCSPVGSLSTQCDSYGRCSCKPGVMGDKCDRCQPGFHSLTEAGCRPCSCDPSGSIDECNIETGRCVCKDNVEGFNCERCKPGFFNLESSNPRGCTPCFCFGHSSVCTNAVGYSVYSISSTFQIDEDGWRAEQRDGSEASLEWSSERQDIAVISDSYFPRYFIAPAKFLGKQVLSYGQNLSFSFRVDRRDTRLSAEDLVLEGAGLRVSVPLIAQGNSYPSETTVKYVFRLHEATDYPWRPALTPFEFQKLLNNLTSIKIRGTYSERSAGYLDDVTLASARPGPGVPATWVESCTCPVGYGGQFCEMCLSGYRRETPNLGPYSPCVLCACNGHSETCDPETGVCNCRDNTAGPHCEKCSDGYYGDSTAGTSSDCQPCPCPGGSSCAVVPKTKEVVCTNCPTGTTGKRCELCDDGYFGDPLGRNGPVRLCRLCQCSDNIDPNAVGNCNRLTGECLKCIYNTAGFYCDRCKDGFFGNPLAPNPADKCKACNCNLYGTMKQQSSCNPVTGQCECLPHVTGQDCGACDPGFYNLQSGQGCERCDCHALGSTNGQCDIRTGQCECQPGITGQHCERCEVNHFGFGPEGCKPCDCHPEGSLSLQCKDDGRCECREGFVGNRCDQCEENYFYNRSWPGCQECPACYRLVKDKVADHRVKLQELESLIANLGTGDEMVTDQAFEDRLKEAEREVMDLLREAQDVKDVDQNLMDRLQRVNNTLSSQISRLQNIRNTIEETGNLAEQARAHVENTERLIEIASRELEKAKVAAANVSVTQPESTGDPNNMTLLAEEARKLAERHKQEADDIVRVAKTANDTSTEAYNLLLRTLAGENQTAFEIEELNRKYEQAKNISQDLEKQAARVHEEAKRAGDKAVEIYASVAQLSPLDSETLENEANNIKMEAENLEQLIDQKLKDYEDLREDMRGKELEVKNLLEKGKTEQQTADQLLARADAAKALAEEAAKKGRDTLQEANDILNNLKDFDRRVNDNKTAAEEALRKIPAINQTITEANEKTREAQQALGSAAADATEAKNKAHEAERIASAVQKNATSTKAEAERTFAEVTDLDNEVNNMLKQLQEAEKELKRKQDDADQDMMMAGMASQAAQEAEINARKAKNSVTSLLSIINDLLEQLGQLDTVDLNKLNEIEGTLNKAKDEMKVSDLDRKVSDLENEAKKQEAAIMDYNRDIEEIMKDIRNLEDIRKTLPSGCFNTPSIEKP
T20 sequence (Q96MW5 whole entry): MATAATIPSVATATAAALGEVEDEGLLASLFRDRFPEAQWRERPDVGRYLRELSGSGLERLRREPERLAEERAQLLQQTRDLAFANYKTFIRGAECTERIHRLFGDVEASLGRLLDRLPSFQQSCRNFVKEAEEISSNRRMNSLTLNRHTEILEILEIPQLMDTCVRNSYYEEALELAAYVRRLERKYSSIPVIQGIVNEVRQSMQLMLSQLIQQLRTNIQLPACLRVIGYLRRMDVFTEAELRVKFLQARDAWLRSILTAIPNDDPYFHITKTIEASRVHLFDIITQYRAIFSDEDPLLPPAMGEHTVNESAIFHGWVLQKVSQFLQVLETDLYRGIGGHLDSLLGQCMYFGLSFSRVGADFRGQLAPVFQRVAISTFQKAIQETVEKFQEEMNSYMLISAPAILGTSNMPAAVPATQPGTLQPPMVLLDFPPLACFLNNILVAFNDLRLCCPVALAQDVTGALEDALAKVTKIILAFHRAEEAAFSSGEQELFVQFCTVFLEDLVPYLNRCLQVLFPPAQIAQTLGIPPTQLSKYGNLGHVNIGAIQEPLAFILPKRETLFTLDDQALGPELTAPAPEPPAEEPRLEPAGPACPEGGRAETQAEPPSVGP
T6 sequence (P09110 27-424): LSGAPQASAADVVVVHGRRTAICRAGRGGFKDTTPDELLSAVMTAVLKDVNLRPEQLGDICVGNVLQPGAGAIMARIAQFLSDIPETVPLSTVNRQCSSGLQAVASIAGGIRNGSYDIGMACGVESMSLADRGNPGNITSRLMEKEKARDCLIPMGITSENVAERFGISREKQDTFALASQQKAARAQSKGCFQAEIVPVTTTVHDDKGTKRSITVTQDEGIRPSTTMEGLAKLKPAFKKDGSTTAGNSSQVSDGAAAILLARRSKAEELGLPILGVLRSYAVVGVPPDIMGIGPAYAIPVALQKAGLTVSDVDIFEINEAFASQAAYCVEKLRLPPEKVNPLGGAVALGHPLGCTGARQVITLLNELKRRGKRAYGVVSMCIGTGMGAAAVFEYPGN
T10 sequence (Q99747 whole entry): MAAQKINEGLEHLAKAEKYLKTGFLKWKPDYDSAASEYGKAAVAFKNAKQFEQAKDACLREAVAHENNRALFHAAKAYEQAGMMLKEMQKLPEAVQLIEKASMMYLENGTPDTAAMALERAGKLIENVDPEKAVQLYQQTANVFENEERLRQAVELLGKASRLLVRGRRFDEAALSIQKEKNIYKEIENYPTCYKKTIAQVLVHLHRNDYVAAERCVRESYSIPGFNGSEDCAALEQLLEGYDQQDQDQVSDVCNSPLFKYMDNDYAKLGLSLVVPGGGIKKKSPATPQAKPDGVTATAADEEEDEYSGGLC
T23 sequence (Q14165 29-292): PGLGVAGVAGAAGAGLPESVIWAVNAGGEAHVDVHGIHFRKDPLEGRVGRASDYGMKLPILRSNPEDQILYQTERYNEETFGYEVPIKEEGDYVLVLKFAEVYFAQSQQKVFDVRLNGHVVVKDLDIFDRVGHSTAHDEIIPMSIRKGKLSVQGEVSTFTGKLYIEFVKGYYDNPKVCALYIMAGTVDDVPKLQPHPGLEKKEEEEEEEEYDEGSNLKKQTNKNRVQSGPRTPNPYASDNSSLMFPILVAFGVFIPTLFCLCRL
T9 sequence (P51991 whole entry): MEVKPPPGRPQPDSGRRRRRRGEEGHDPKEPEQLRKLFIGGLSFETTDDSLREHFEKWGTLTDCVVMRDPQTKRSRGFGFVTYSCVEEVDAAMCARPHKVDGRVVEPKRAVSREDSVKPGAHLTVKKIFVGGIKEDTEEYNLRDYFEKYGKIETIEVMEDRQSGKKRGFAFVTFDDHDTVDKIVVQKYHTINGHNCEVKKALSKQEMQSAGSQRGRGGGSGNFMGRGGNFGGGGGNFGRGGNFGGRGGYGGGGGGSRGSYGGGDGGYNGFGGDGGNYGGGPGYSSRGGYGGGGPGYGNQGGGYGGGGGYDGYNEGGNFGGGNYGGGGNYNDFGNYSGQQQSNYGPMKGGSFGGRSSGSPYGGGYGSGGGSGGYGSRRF
T4 sequence (P01100 whole entry): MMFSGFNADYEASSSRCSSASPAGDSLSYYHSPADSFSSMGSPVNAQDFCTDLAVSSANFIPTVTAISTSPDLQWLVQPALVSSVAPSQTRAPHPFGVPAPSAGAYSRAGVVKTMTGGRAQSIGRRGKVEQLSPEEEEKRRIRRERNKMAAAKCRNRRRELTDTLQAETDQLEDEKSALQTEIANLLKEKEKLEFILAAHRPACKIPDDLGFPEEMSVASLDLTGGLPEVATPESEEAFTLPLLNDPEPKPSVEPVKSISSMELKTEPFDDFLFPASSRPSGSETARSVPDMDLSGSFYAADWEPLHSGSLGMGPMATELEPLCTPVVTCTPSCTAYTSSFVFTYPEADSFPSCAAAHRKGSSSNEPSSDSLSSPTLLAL
T29 sequence (P49841 whole entry): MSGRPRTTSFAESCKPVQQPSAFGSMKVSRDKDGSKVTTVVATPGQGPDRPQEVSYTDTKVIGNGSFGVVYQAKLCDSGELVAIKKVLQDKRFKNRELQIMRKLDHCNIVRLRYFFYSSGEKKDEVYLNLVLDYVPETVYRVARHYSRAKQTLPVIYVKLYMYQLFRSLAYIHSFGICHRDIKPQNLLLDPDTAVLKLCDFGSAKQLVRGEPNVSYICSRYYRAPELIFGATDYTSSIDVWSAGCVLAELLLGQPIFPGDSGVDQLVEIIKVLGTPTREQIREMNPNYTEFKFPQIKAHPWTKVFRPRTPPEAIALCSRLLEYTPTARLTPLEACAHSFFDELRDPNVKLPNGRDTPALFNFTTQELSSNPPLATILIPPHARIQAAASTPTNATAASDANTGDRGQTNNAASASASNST
T35 sequence (P53539 whole entry): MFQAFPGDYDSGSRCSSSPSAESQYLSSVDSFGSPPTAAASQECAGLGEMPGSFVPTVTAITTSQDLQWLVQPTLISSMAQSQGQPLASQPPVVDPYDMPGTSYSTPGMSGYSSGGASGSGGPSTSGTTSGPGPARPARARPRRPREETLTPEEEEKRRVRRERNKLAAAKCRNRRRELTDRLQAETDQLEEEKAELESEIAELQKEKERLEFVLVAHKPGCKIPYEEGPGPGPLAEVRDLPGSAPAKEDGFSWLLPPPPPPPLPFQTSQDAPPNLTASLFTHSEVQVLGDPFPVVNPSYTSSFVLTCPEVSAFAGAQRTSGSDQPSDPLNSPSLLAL

CN1CCN(c2ccc(Nc3ncc4cc(C#N)c(=O)n(C5CCCC5)c4n3)cc2)CC1 [Compound 1, 8-cyclopentyl-2-((4-(4-methylpiperazin-1-yl)phenyl)amino)-7-oxo-7,8-dihydropyrido[2,3-d]pyrimidine-6-carbonitrile]
Group (CETSA-MS thermal shift) (DHX9): Stabilization
Group (CETSA-MS thermal shift) (INCENP): Stabilization
Group (CETSA-MS thermal shift) (LAMC1): Stabilization
Group (CETSA-MS thermal shift) (FOS): Destabilization
Group (CETSA-MS thermal shift) (ELL): Stabilization
Group (CETSA-MS thermal shift) (ACAA1): Destabilization
Group (CETSA-MS thermal shift) (IFT52): Stabilization
Group (CETSA-MS thermal shift) (NRP1): Stabilization
Group (CETSA-MS thermal shift) (HNRNPA3): Stabilization
Group (CETSA-MS thermal shift) (NAPG): Stabilization
Group (CETSA-MS thermal shift) (LAMTOR2): Stabilization
Group (CETSA-MS thermal shift) (ARRB2): Stabilization
Group (CETSA-MS thermal shift) (CAVIN3): Stabilization
Group (CETSA-MS thermal shift) (MTG1): Stabilization
Group (CETSA-MS thermal shift) (ESYT1): Stabilization
Group (CETSA-MS thermal shift) (CLUH): Stabilization
Group (CETSA-MS thermal shift) (APP): Stabilization
Group (CETSA-MS thermal shift) (CBX5): Stabilization
Group (CETSA-MS thermal shift) (ECE1): Stabilization
Group (CETSA-MS thermal shift) (COG8): Destabilization
Group (CETSA-MS thermal shift) (SCP2): Destabilization
Group (CETSA-MS thermal shift) (SGPP1): Stabilization
Group (CETSA-MS thermal shift) (MLEC): Stabilization
Group (CETSA-MS thermal shift) (CLPP): Stabilization
Group (CETSA-MS thermal shift) (IGFBP7): Stabilization
Group (CETSA-MS thermal shift) (TIMP2): Stabilization
Group (CETSA-MS thermal shift) (UFL1): Stabilization
Group (CETSA-MS thermal shift) (PIP4K2A): Stabilization
Group (CETSA-MS thermal shift) (GSK3B): Stabilization
Group (CETSA-MS thermal shift) (PIP4K2B): Stabilization
Group (CETSA-MS thermal shift) (SNX6): Destabilization
Group (CETSA-MS thermal shift) (ELAVL1): Stabilization
Group (CETSA-MS thermal shift) (AGRN): Stabilization
Group (CETSA-MS thermal shift) (NPM1): Destabilization
Group (CETSA-MS thermal shift) (FOSB): Destabilization
Group (CETSA-MS thermal shift) (FGFRL1): Stabilization
